Measured values published in ChEMBL document CHEMBL1201862, “PubChem BioAssay data set” (2004).
The source made the active and inactive calls.

Columns and labels:
[1] = inhibition of K1F phage lysis, E. coli UTI89, bacterial capsule biogenesis inhibitors, alamar blue (AID 488966); format: functional
[2] = biological target: Eukaryotic translation initiation factor 4E (Mus musculus, UniProt P63073); assay: eIF4E–eIF4G protein interaction inhibitors, dose response, biochemical, TR-FRET (AID 855); format: functional;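 note: potency for disrupting eIF4E binding to eIF4GI seen as loss of FRET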
Chain of Eukaryotic translation initiation factor 4E (P63073 whole entry): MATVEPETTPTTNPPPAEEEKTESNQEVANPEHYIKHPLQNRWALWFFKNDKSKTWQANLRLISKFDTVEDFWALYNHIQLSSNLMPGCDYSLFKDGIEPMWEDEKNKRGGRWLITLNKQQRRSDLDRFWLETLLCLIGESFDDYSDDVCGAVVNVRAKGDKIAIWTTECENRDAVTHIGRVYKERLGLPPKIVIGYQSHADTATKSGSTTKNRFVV

[3] = biological target: Eukaryotic translation initiation factor 4H (Homo sapiens, UniProt Q15056); assay: eIF4H inhibition in translation initiation, SAR follow-up (AID 435011); format: functional
[4] = biological target: Polyadenylate-binding protein 1 (Homo sapiens, UniProt P11940); assay: PABP inhibition in translation initiation, SAR follow-up (AID 435018); format: functional
Chain of Polyadenylate-binding protein 1 (P11940 whole entry): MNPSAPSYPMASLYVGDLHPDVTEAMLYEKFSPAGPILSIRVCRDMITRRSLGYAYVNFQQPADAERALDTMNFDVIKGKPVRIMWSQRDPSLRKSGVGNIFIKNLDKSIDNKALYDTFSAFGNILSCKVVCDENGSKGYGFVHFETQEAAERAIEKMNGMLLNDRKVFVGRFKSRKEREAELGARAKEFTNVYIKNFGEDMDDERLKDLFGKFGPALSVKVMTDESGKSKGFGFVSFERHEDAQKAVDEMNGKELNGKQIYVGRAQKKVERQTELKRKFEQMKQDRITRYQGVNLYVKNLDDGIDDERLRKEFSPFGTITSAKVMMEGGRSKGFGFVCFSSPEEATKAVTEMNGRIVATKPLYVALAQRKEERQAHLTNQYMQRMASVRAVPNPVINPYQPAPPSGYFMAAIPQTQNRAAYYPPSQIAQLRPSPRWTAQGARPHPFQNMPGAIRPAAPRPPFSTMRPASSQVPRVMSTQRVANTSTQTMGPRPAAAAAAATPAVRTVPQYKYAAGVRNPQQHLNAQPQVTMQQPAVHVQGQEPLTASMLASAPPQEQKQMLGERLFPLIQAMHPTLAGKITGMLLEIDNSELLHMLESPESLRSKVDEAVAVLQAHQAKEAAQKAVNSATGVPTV

[5] = A cytotoxicity screen of small molecule inhibitors of the PhoP region in Salmonella typhi identified in the primary screen. [Related pubchem assays: 1850, 1864, 1985 ]; format: functional
Bcl-2-related protein A1 [6] = biological target: T1, Bcl-2-related protein A1 (Mus musculus, UniProt Q07440); assay: Bfl-1 inhibitors, primary screen, biochemical, fluorescence polarization, FITC-Bid, mouse (AID 432)
T1 sequence (Q07440 whole entry): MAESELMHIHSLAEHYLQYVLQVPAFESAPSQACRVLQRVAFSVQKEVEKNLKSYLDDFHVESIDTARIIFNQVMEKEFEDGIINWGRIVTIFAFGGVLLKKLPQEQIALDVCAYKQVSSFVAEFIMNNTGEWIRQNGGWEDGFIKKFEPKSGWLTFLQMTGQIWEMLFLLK

Bcl-2-related protein A1 [7] = biological target: T1, Bcl-2-related protein A1; assay: Bfl-1 inhibitors blocking BH3 peptide binding, confirmation, biochemical, TR-FRET, mouse Bfl-1 (AID 621);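 note: TR-FRET binding of GST-Bfl-1 to FITC-labelled Bid peptide via terbium antibody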
[8] = biological target: NACHT, LRR and PYD domains-containing protein 3 (Homo sapiens, UniProt Q96P20); assay: NALP3 inhibitors in yeast, dose response, luminescent (AID 488799); format: functional
Chain of NACHT, LRR and PYD domains-containing protein 3 (Q96P20 whole entry, the tested form may be a part): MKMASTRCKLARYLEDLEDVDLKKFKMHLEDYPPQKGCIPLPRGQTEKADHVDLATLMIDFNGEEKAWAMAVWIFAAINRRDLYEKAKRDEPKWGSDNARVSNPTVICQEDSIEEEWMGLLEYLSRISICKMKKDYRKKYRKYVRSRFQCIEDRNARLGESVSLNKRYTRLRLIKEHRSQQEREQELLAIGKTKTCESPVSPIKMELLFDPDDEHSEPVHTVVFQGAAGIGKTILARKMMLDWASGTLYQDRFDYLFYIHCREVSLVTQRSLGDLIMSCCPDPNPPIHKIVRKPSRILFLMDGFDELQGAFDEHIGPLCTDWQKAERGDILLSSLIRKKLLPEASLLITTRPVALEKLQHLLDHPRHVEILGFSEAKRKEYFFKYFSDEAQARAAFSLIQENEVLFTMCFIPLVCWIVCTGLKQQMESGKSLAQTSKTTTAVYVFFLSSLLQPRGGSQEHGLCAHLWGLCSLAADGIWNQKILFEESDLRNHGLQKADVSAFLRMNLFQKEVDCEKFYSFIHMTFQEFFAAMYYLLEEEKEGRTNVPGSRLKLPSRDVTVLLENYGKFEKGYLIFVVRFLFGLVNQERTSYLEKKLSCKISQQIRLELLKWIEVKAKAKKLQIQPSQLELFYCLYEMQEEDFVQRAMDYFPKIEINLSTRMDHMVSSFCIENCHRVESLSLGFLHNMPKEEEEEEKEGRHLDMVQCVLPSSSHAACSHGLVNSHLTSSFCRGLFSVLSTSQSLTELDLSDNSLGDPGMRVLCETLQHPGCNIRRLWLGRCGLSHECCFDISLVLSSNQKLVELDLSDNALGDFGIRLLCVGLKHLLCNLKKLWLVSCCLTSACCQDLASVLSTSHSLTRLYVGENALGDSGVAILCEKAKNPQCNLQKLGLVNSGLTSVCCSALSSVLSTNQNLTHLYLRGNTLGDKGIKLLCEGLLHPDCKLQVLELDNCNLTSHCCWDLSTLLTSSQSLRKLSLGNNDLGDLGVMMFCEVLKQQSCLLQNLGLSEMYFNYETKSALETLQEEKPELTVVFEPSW

[9] = biological target: T2, Mannose-6-phosphate isomerase (Homo sapiens, UniProt P34949); assay: Confirmation of compounds inhibiting phosphomannose isomerase (PMI) via a fluorescence intensity assay using a high concentration of mannose 6-phosphate. [Related pubchem assays (depositor defined):AID1209, AID1220, AID1545, AID1553, AID1620]
T2 sequence (P34949 whole entry): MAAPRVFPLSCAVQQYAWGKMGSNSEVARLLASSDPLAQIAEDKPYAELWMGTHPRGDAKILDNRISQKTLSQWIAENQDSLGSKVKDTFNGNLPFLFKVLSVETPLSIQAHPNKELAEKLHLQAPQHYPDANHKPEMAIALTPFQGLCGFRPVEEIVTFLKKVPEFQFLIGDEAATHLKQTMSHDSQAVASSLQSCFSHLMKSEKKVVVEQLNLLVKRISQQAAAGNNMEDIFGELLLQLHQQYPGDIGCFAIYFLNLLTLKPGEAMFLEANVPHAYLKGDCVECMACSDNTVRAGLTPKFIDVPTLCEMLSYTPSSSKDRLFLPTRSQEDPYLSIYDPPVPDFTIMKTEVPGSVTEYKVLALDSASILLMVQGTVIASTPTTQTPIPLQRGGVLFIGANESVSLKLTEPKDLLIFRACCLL

[10] = biological target: T2, Mannose-6-phosphate isomerase; assay: PMI enzyme inhibitors, confirmation, biochemical, fluorescence intensity (AID 1535)
[11] = biological target: Alkaline phosphatase, placental type (Homo sapiens, UniProt P05187); assay: PLAP enzyme inhibitors, confirmation, biochemical, luminescence (AID 1512); format: functional
Chain of Alkaline phosphatase, placental type (P05187 whole entry): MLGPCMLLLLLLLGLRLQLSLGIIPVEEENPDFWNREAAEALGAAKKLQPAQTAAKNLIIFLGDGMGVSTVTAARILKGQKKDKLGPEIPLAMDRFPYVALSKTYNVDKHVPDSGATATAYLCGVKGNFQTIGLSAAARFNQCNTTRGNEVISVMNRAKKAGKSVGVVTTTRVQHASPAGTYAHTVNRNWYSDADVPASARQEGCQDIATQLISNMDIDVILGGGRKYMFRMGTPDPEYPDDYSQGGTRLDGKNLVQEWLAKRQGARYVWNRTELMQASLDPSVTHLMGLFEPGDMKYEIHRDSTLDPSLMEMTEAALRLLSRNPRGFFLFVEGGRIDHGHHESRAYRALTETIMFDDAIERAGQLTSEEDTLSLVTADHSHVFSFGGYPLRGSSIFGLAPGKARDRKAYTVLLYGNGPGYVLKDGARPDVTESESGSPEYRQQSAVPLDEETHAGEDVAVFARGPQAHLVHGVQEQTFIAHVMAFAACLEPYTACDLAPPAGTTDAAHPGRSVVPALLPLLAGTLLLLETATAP

[12] = A Cell Based Secondary Assay To Explore Cytotoxicity of Compounds that Sensitize Mycobacterium Tuberculosis to Beta-Lactam Antibiotics.; format: functional
[13] = biological target: G-protein coupled receptor 35 (Homo sapiens, UniProt Q9HC97); assay: SAR analysis of Antagonists of the GPR35 Receptor using an Image-Based Assay - Set 5. [Related pubchem assays (depositor defined):AID2058, AID2079]; format: functional
Chain of G-protein coupled receptor 35 (Q9HC97 whole entry): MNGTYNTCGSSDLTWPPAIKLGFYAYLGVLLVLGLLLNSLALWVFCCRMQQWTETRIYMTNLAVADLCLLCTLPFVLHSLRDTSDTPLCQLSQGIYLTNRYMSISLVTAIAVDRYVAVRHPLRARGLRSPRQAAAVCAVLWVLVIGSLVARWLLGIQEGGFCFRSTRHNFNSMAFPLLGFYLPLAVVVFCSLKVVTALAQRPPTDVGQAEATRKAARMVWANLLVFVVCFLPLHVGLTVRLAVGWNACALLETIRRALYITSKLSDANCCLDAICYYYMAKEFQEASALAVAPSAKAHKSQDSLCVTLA

[14] = biological target: G-protein coupled receptor 55 (Homo sapiens, UniProt Q9Y2T6); assay: SAR Analysis of Selective Antagonists of GPR55 using an Image-Based Assay - Set 3. [Related pubchem assays (depositor defined):AID2058, AID2079]; format: functional
Chain of G-protein coupled receptor 55 (Q9Y2T6 whole entry): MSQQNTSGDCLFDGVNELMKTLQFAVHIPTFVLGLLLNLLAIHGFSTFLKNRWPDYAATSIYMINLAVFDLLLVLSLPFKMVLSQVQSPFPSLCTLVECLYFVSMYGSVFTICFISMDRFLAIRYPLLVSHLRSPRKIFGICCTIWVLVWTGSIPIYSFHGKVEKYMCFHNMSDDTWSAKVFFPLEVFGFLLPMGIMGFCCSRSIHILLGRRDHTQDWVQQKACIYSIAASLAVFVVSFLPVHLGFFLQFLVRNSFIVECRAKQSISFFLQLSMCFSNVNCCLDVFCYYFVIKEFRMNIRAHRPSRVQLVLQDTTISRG

## Cc1cc(NCCN)nc2ccccc12
[1]
  IC50: > 300 µM (active)

## CC(=O)Nc1c(-c2ccccc2)nc2ncccn12
[2]
  IC50: > 64 µM (inactive)

## COc1cc(NC(=O)CSc2ccc(-c3ccco3)nn2)cc(OC)c1
[3]
  IC50: 62.7 µM (active)
[4]
  IC50: > 100 µM (inactive)

## O=C(Nc1cccc(Br)c1)c1cc2ccccc2o1
[5]
  EC50: > 50 µM (active)
Bcl-2-related protein A1 [6]
  IC50: > 100 µM (not active)
Bcl-2-related protein A1 [7]
  IC50: > 100 µM (not active)
[8]
  IC50: 9.81 µM (active)

## O=C1N(Cc2ccccc2)c2ccccc2C12NNc1ccccc1O2 (centres undefined)
[9]
  IC50: > 100 µM (inactive)
[10]
  IC50: > 100 µM (inactive)
[11]
  IC50: > 100 µM (inactive)

## COC(=O)c1cnn(-c2ccccc2)c1/C=N/NC(=S)Nc1ccc(Cl)cc1
[12]
  CC50: > 40 µM (active)
[13]
  IC50: 0.319 µM (active)
[14]
  IC50: > 32 µM (inactive)
